Measured values: patent publication US20220143024A1, “METHODS OF USING IMIPRIDONES” (Board of Regents, The University of Texas System, priority 2019, published 2022)
Read-outs that look alike come from different tables or passages of the source.

Legend:
[1] = tested on: ONC201-resistant (ONC-R) Z138 cells carrying D190A mutant ClpP; assay: Sensitivity of ONC201-resistant Z138 cells; settings: Annexin V assay; 72 hours
Protocol: (§3) After a 72-h period of incubation at 37° C., 10 μL of Alamar Blue was added to the culture medium and the mixture was incubated for an additional 2 h at 37° C. Cytotoxicity was measured using spectrophotometry of fluorescence at excitation 560 nm & emission 590 nm (SpectraMax M3, Molecular Devices, San Jose, Calif.). […] Annexin V and PI were stained after 72 h incubation. Annexin V- and PI-negative cells were counted as live cells.

[2] = tested on: CLPP+/+ T-REx HEK293 cells; assay: Alamar blue viability, CLPP+/+ T-REx HEK293; settings: CLPP+/+ (wild type) T-REx HEK293, 72 h
Protocol: as §3

[3] = tested on: Z138 cells with WT ClpP overexpression; assay: Z138 xenograft, WT ClpP overexpression; assay type: in vivo, mice; settings: WT ClpP group
Protocol: (§1) Mice. For all the animal studies in the present study, the study protocols were approved by the Institutional Animal Care and Use Committee (IACUC) at the Princess Margaret Cancer Centre and MD Anderson Cancer Center. Two million Z138 cells transfected with the wild-type or D190A mutant CLPP-over-expressing vector and labeled with luciferase were injected to individual NSG mice (n=7 per treatment group, all female). After confirming engraftment measured by in vivo bioluminescence imaging on d 9 post-transplantation, ONC212 (50 mg/kg/d) or vehicle (water) is administered by oral gavage every other d until the mice got moribund. Tumor burden measured by luminescence was followed weekly until day 31. Independently, two million Z138 cells transfected with tetracycline-inducible Y118A mutant ClpP were labeled with luciferase and injected to individual NSG mice (n=10 per treatment group, all male). After confirming engraftment measured by in vivo bioluminescence imaging on day 5 post-transplantation, the mice were treated with or without tetracycline (2 mg/mL) in drinking water until moribund. One million OCI-AML2 cells were injected to individual SCID mice (n=10 per treatment group, all male). […]. Engraftment experiments using patient-derived xenograft AML cells were performed as previously reported (Ishizawa et al., 2016). […] The mice in each group were monitored for survival.

[4] = tested on: CLPP−/− T-REx HEK293 cells; assay: Alamar blue viability, CLPP−/− T-REx HEK293; settings: 72 h
Protocol: as §3

[5] = target: T1, human ClpP (recombinant WT ClpP) (Homo sapiens, UniProt Q16740); assay: ClpP enzymatic assays with fluorogenic substrates (cell-free); assay type: biochemical; settings: for EC50: without ClpX
T1 construct: SUMO fusion (pETSUMO2); made in house; host or cells: E. coli SG1146
Protocol: (§2) Hill coefficient was determined using Origin7, Pharmacology—Dose-response curve with log (compound concentration) as the independent variable.

[6] = tested on: patient-derived xenograft AML cells (leukemia-initiating cells); assay: Engraftment of ex vivo treated patient-derived xenograft AML cells; assay type: in vivo; settings: cells treated ex vivo with 250 nM for 36 hours, injected into NSG mice; untreated 36 days; p<0.0001
Protocol: as §1

recombinant D190A ClpP = target: T2, recombinant D190A ClpP (Homo sapiens, UniProt Q16740, D190A); assay: ClpP enzymatic assays, D190A ClpP; assay type: biochemical; settings: peptide (AC-WLA-AMC) or protein (FITC-casein) substrates
T2 construct: SUMO fusion (pETSUMO2); made in house; host or cells: E. coli SG1146
Protocol: as §2

[7] = tested on: primary AML patient samples; assay: Annexin V assay in primary AML samples; settings: 72 hours; incl. high-risk cytogenetics and molecular mutations
Protocol: Bulk AML cells from AML patients and peripheral blood stem cells from healthy G-CSF-treated stem cell donors were isolated by Ficoll density centrifugation and apheresis, respectively. Isolated cells were maintained in IMDM supplemented with 10% FBS, or Myelocult H5100 (Stemcell Technologies, Vancouver, BC), supplemented with 100 ng/mL SCF, 10 ng/mL FLT3-L, 20 ng/mL IL-7, 10 ng/mL IL-3, 20 ng/mL IL-6, 20 ng/mL G-CSF, 20 ng/mL GM-CSF. Cells were supplemented with 100 μg/ml penicillin, and 100 U/ml streptomycin, at 37° C. and 5% CO2 in humidified atmosphere.

[8] = tested on: OCI-AML2, OCI-AML3, TEX, Z138, HCT-116, HeLa, OC316 and SUM159 cells; assay: Growth and viability of leukemia, lymphoma and solid tumor cell lines; settings: tested cell lines; 72-hour exposure
Protocol: as §3

[9] = tested on: ClpP interactors (SDHA, SDHB, NDUFA12) in OCI-AML3 cells; assay: Immunoblot of respiratory chain complex subunits, OCI-AML3; assay type: cell-based; settings: 24 hours, dose dependent
Protocol: Cells were lysed at a density of 1×10^6/50 μL (for AML cells) or 1×10^6/100 μL (for HCT116 cells) in protein lysis buffer (0.25 M Tris-HCl, 2% sodium dodecylsulfate, 4% β-mercaptoethanol, 10% glycerol, 0.02% bromophenol blue). Protein lysates for Oxphos cocktail antibodies were incubated for 30 min at room temperature, otherwise, at 95° C. for 5 min for denaturing (antibodies used are listed below). Immunoblot analysis was performed as reported previously (Ishizawa et al., 2016). Briefly, an equal amount of protein lysate was loaded onto a 10-12% SDS-PAGE gel (Bio-Rad), and quantitated using the Odyssey imaging system (LI-COR Biotechnology, Lincoln, Nebr.). Antibodies used: total OXPHOS rodent WB antibody cocktail, anti-SDHA, anti-SDHB, anti-NDUFA12, anti-ClpP, anti-ATF4, anti-eIF2α, anti-phospho-eIF2α (S51), anti-ClpP, anti-CQCRC2, anti-CS, anti-NDUFB8, anti-β-actin, and anti-GAPDH.

ClpP = target: T3, ClpP (Homo sapiens, UniProt Q16740); assay: Gel-based α-casein degradation by ClpP; assay type: biochemical; settings: without ClpX; 3 h; SDS-PAGE
T3 construct: SUMO fusion (pETSUMO2); made in house; host or cells: E. coli SG1146

[10] = target: endogenous ClpP in OCI-AML2 cells (Homo sapiens, UniProt Q16740); settings: 30 min, at concentrations associated with activation in enzymatic assays
[11] = tested on: Z138 cells with D190A ClpP overexpression; assay: Z138 xenograft, D190A ClpP overexpression; assay type: in vivo, mice
Protocol: as §1

[12] = tested on: Z138 cells with tetracycline-inducible mutant ClpP (Y118A); assay: Z138 xenograft with tetracycline-inducible Y118A mutant ClpP; assay type: in vivo; settings: tetracycline 2 mg/mL in drinking water induces Y118A ClpP; untreated 40 days; p<0.0001; NSG mice
Protocol: as §1

OCI-AML2 cells = assay: Alamar blue viability assay, OCI-AML2; assay type: cell-based; settings: 72-hour exposure, read-out: IC50, growth and viability
Protocol: […]. After a 72-h period of incubation at 37° C., 10 μL of Alamar Blue was added to the culture medium and the mixture was incubated for an additional 2 h at 37° C. Cytotoxicity was measured using spectrophotometry of fluorescence at excitation 560 nm & emission 590 nm (SpectraMax M3, Molecular Devices, San Jose, Calif.). For apoptosis analysis, annexin V and PI binding assays were performed to assess apoptosis as described previously (Ishizawa et al., 2016). […]. Annexin V and PI were stained after 72 h incubation. Annexin V- and PI-negative cells were counted as live cells.

[13] = substrate FITC-casein, read-out: EC50, ClpP cleavage of FITC-casein

T1 sequence (Q16740 57-277): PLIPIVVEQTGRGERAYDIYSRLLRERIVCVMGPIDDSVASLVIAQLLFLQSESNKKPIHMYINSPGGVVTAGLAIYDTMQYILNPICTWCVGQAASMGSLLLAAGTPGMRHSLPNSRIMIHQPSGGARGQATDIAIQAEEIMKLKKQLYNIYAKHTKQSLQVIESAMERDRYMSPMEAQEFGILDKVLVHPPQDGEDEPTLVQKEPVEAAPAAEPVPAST
endogenous ClpP in OCI-AML2 cells, sequence (Q16740 57-277): as above
T3 sequence (Q16740 57-277): as above
T2 sequence (Q16740 57-277 D190A): as the sequence (Q16740 57-277) above, with D134A counted along it

## COc1cccc2c1C(=O)c1c(O)c3c(c(O)c1C2=O)C[C@@](O)(C(=O)CO)C[C@@H]3O[C@H]1C[C@H](N)[C@H](O)[C@H](C)O1 [Adriamycin]
[1]
  sensitivity of ONC-R Z138 cells: retained similar sensitivity

## O=C1C2=C(CCN(Cc3ccccc3)C2)N2CCN=C2N1Cc1ccc(C(F)(F)F)cc1 [ONC212]
[2]
  growth and viability: reduced the growth and viability
[3]; 50 mg/kg every other day, oral gavage, NSG mice
  tumor burden (luciferase, IVIS imaging): significantly reduced
[3]; vehicle 49 days, p=0.008
  median survival: 55 days
[1]
  sensitivity of ONC-R Z138 cells: cross-resistant
[4]
  growth and viability: resistant
[5]; FITC-casein data, positive cooperativity
  Hill coefficient: 4.98±0.47
[5]; pre-incubation of ClpP with compound (0-60 min) did not increase activation
  mode of activation: reversible (non-covalent)
[5]; read-out: EC50, ClpP cleavage of FAPHMALVPC (Clptide), substrate FAPHMALVPC (Clptide), read-out: EC50, ClpP cleavage of […] (Clptide)
  EC50: 3370 nM
[5]; substrate AC-WLA-AMC, read-out: EC50, ClpP cleavage of AC-WLA-AMC
  EC50: 180 nM
[5]; substrate Ac-Phe-hArg-Leu-ACC, read-out: EC50, ClpP cleavage of Ac-Phe-hArg-Leu-ACC
  EC50: 370 nM
[5]; [13]
  EC50: 460 nM
[6]
  median survival: 82 days
Recombinant D190A ClpP
  activation of proteolytic activity of D190A ClpP: could not activate
[7]
  apoptosis in primary AML patient samples: induced apoptosis
[8]
  IC50 values, growth and viability: nanomolar range
[9]
  level of identified ClpP interactors: reduced the level
ClpP
  degradation of α-casein by ClpP: activated ClpP and induced cleavage of α-casein
[10]
  binding to endogenous ClpP in cells: bound endogenous ClpP
[11]; D190A ClpP group, 50 mg/kg every other day, oral gavage, NSG mice
  tumor burden (luciferase, IVIS imaging): no discernable anti-tumor activity
[11]; D190A mutant group, vehicle 53 days, p=0.40
  median survival: 54 days

## CC[C@]1(O)C[C@H]2CN(CCc3c([nH]c4ccccc34)[C@@](C(=O)OC)(c3cc4c(cc3OC)N(C=O)[C@H]3[C@@](O)(C(=O)OC)[C@H](OC(C)=O)[C@]5(CC)C=CCN6CC[C@]43[C@@H]65)C2)C1 [Vincristine]
[1]
  sensitivity of ONC-R Z138 cells: retained similar sensitivity

## CN(C)[C@@H]1C(O)=C(C(N)=O)C(=O)[C@@]2(O)C(O)=C3C(=O)c4c(O)cccc4[C@@](C)(O)[C@H]3C[C@@H]12 [tetracycline]
[12]
  median survival: 48 days

## Acyldepsipeptide 1 [ADEP1]
[5]; ADEP1 versus ONC201 and ONC212
  potency as ClpP activator (comparison): less potent
[5]; after activating ClpP
  cleavage of non-ClpP substrate MCA-Pro-Leu-Gly-Pro-D-Lys (DNP)-OH: not cleaved
[5]; [13]
  EC50: 21300 nM
OCI-AML2 cells
  IC50: 50 µM
